Read-outs that look alike come from different tables or passages of the source.
Assays:
[1] = test system: Beclin 2-GASP1 interaction; assay: Coimmunoprecipitation of endogenous GASP1 with Flag-human Beclin 2 in HEK293 cells; assay type: cell-based; settings: 3 h
Source text: Based on this model, the effect of these inducers on the Beclin 2-GASP1 interaction in vitro and in mouse brain were subsequently examined.

[2] = test system: HTT aggregates; assay: Fluorescence imaging of HTT inclusions in HeLa cells; assay type: cell-based
Source text: Blue, DAPI. Results represent mean±s.e.m. Scale bar: 20 μm. Statistics compare each value to the one under the “-” condition. **, P<0.01; ***, P<0.001; NS, not significant, t test.
ML246 promotes the removal of intracellular aggregates formed by polyglutamine (polyQ)-expansion proteins. HeLa cell lines stably expressing tetracycline-repressible expanded polyQ-repeat protein HTT (huntingtin) was used as a model, HTT65Q and HTT103Q. In contrast to the HTT protein with the normal number of glutamine repeats (HTT25Q), HTT65Q and HTT103Q formed insoluble polyQ aggregates larger than 0.2-μm diameter, which can be detected by filter trap assay. […] Fluorescence imaging further confirmed that ML246 administration decreased the number of cells positive for HTT aggregates, which is also in an ATG7-dependent manner (FIG. S6B).
Accordingly, whether Rg2 affects the clearance of proteinaceous inclusions in vitro was next determined, using HeLa cell lines expressing tetracycline-repressible expanded polyglutamine (polyQ)-repeat protein HTT (huntingtin), HTT65Q and HTT103Q. Unlike the HTT protein with the normal number of glutamine repeats (HTT25Q), HTT65Q and HTT103Q formed insoluble polyQ aggregates larger than 0.2-μm diameter, which were detected by filter trap assays (FIG. 5A).

[3] = test system: HEK293 cells stably expressing APP; assay: Dot blot of secreted Aβ42 in conditioned media of APP-HEK293 cells; assay type: cell-based, human
Method: Cells were transfected with non-targeting control (NC) or ATG7 siRNA 24 h prior to ML246 treatment. Results are quantified from 4 independent experiments.
In addition to Becn2^F121A-mediated genetic activation of autophagy, it was decided to further study whether stimulating autophagy pharmacologically is also protective against neurodegenerative progression. A brain-penetrable autophagy-inducing small molecule ML246 (metarrestin) was recently identified, and analyzed its effects on the clearance of aggregate-prone proteins in vitro and in vivo. For in vitro analyses, the HEK293 cell line stably expressing APP (APP-HEK293) was utilized, in which the produced Aβ molecules are efficiently secreted, to study the effect of ML246 on amyloid metabolism. […] In addition, cultured WT primary cortical neurons treated with the conditioned media from ML246-treated APP-HEK293 cells underwent a lower level of apoptotic cell death than those treated with media from vehicle-treated APP-HEK293 cells (FIG. 18B).
Dot blot assay. […] Protein concentration was quantified using BCA Assay (Pierce). […] The membrane was stained with Ponceau S, and the dot blot signal on the membrane was detected by immunostaining with Aβ42 antibody (Invitrogen, 700254, 1:1000) and HRP-conjugated secondary antibody (Santa Cruz Biotechnology, sc2004, 1:2000). […]

[4] = test system: amyloid plaques; assay: Amyloid plaques stained by thioflavin S or Aβ42 antibody in brain of 5XFAD mice; assay type: in vivo, mouse
Method: Scale bar: 500 μm. Results represent mean±s.e.m. N=6-8. *, P<0.05; **, P<0.01, t test.
Immunofluorescence microscopy. Paraformaldehyde-fixed brain tissues were sectioned at 30 μm thickness. Free-floating sagittal sections were immunostained with 1% thioflavin S (Sigma-Aldrich, 230456) for 20 minutes. Additional sections were immunostained with Aβ (Invitrogen, 700254, 1:500) and Alexa Fluro 594 goat anti rabbit (ThermoFisher Scientific, Al 1012). Sections were mounted on slides with mounting medium containing DAPI (Vectashield) and then analyzed by fluorescence microscopy under the 10× objective.

[5] = test system: WT primary cortical neurons; assay: TUNEL assay of primary cortical neurons treated with conditioned media of APP-HEK293 cells; assay type: cell-based, mouse
Method: Nuclei were stained with DAPI. Scale bar, 100 μm. N=10 fields (each field containing 20-30 neurons).
TUNEL assays. APP-HEK293 cells were cultured in 6-well dishes for 24 h and then the media was replaced with neuronal culture media. After 48 h, conditioned media was collected and used to treat primary cortical neurons (12 DIV) cultured on poly-L-lysine coated slides for another 24 h. Apoptotic neurons were detected by the In Situ Cell Death Detection Kit, TMR red (Roche, cat. #12156792910) according to the manufacturer's instructions. Nuclei were stained using the mounting medium containing DAPI (Vectashield). Quantification of red TUNEL-positive neurons was done using the NIS Elements software.

[6] = test system: 5XFAD mice; assay: Contextual fear conditioning test of 5XFAD mice; assay type: in vivo, mouse; settings: Rg2 for 4 months
Method: Fear conditioning training exposed mice to 2-s electrical foot shocks separated by 1-min interval through a grid floor at the bottom of the chamber. On the following day, the mice were returned to the same chamber and their movements were recorded with a video camera to test for contextual conditioning. Freezing (very low levels of movement) in the training environment indicate context-associated fear. WT mice without APP transgene were used as negative control in the above studies. N=8. *, P<0.05; **, P<0.01, t test.

[7] = mouse, in vivo
[8] = test system: 5XFAD mice; assay: Open-field test of 5XFAD mice; assay type: in vivo, mouse; settings: Rg2-treated vs vehicle-treated 5XFAD mice
[9] = mouse
[10] = test system: HeLa cell lines expressing HTT
[11] = test system: mouse models of AD; settings: cited from earlier work

Structure (SMILES)	coimmunoprecipitation of endogenous GASP1 by Beclin 2 [1]	number of cells positive for HTT aggregates ([2]; ML246)	level of secreted Aβ in the conditioned media ([3]; APP-HEK293 cells, 24 h)	ML246-mediated reduction of secreted Aβ42 ([3]; siRNA knockdown of ATG7)	amyloid plaques ([4]; 5XFAD mice, 5 weeks of ML246)	apoptotic cell death of neurons ([5]; conditioned media from ML246-treated APP-HEK293 cells vs vehicle-treated)	ML246-mediated reduction of apoptotic neuronal death ([5]; siRNA knockdown of ATG7 in APP-HEK293 cells)	freezing responses (contextual fear memory) [6]	food intake [7]	locomotor activity (distance travelled) [8]	number of cells positive for HTT aggregates ([2]; Rg2)	percentage bound by plasma protein ([9]; 10 μg/ml)	percentage bound by plasma protein ([9]; 50 μg/ml) [%]	percentage bound by plasma protein ([9]; 100 μg/ml) [%]	number of amyloid plaques ([4]; Rg2-treated 5XFAD mice, thioflavin or Aβ42 antibody)	cell viability [10]	amyloid burden and memory deficit [11]
N=c1c2c(-c3ccccc3)c(-c3ccccc3)n(Cc3ccccc3)c2ncn1[C@H]1CC[C@H](O)CC1 [ML246]	potently blocked	decreased	significantly reduced	reversed	trend of plaque reduction	lower level	reversed	–	–	–	–	–	–	–	–	–	–
CC(C)=CCC[C@](C)(O)[C@H]1CC[C@]2(C)[C@@H]1[C@H](O)C[C@@H]1[C@@]3(C)CC[C@H](O)C(C)(C)[C@@H]3[C@@H](O[C@@H]3O[C@H](CO)[C@@H](O)[C@H](O)[C@H]3O[C@@H]3O[C@@H](C)[C@H](O)[C@@H](O)[C@H]3O)C[C@]12C [Rg2, ginsenoside Rg2]	–	–	–	–	–	–	–	rescued the freezing responses	does not alter	no rescue	reduced	approximately 42%	~24	~15	significantly fewer number	grew as well as the control cells	reduces amyloid burden and memory deficit

Source: patent US11241436B2, “Autophagy inducers for treatment of CNS conditions” (Northwestern University, priority 2017, dated 2022)
